From US4814348A, “Therapeutic compositions containing derivatives of acrylic acid having an oxygen-containing heterocycle, therapeutic treatment therewith and new compounds” (Roussel Uclaf, priority 1983, dated 1989) come the findings set out here.

One may read the LD50 as the dose expected to kill half of the subjects tested.

Data set [1] concerns total acidity of the gastric secretions. The experiment in a line: Gastric antisecretory activity in pylorus-ligated rats (Shay technique). The format is in vivo. As to conditions: dose of 10 mg/kg, intraduodenal, male rats, 3 hours. As to the method:
B. Determination of the gastric antisecretory activity
The technique used is described by H. Shay et al in Gastro. Enterology, 5 43 (1945).
Male rats are used of a weight of about 200 g, which had been deprived of food for 48 hours, but with 8% glucose solution ad libitum. The pylorus of the rats, which had been slightly anesthetized with ether, is ligated and then, upon the end of the operation, the product to be tested is administered in different doses or, in the case of the control animals, an 0.5% solution of carboxymethyl cellulose is administered intraduodenally, whereupon the abdominal incision is sutured.
Three hours later, the animals are sacrificed and their stomachs removed after ligation of the esophagus.
The gastric juice is removed and centrifuged. The volume is then noted and the total acidity is determined on 100 μl of gastric juice by titration to a pH of 7 by means of 1/100N caustic soda.
The percentages of variation of total acidity of the gastric secretions are calculated, as compared with the results obtained with the control animals.

Data set [2] in a line: Acute oral toxicity (median lethal dose) in mice. As to conditions: mouse, in vivo, oral administration. As to the method: The median lethal dose (LD50) was evaluated upon oral administration of the products to mice.

In the case of `O=C(O)C=CC(=O)c1cc2ccccc2o1` [Example 1, 4-(benzofuran-2-yl)-4-oxo-buten-2-oic acid], the “percentage of variation of total acidity of the gastric secretions as compared with control animals” value (“percentage” below) in data set [1] is listed as 53%. The molecule further returned an LD50 in data set [2] of 350 mg/kg.

`Cc1cc(O)c(C(=O)C=CC(=O)O)c(=O)o1` [Example 2, 4-(2-oxo-4-hydroxy-6-methyl-2H-pyran-3-yl)-4-oxo-buten-2-oic acid]: the “percentage” value in data set [1] is given as 70%. In data set [2], this molecule showed an LD50 of 350 mg/kg.

As for `O=C(O)C=CC(=O)c1ccco1` [Example 3, 4-(2-furyl)-4-oxo-buten-2-oic acid], in data set [1], the “percentage” value is listed as 94%. The same molecule showed an LD50 in data set [2] of 750 mg/kg.

In the case of `Cc1nc(C(=O)/C=C/C(=O)O)c(C)o1` [Example 4, Trans 4-(2,5-dimethyl-oxazol-4-yl)-4-oxo-buten-2-oic acid], the “percentage” value in data set [1] worked out at 77%. This molecule also came in with an LD50 in data set [2] of 350 mg/kg.

Consider `Cc1noc(C)c1C(=O)/C=C/C(=O)O` [Example 5, Trans-4(3,5-dimethyl-isoxazol-4-yl)-4-oxo-buten-2-oic acid], for which the “percentage” value in data set [1] is on record as 87%. This molecule returned an LD50 in data set [2] of 350 mg/kg.

Turning to `Cc1ccc(C(=O)/C=C/C(=O)O)o1` [Example 6, Trans 4-(5-methyl-2-furyl)-4-oxo-2-butenoic Acid], the “percentage” value in data set [1] worked out at 75%. The same molecule displayed an LD50 in data set [2] of 350 mg/kg.

Regarding `Cc1cc(C(=O)/C=C/C(=O)O)c(C)o1` [Example 7, Trans 4-(2,5-dimethyl-3-furyl)-4-oxo-2-butenoic Acid], the “percentage” value in data set [1] is 45%. The LD50 in data set [2] was found to be 350 mg/kg.
